# Source: a melting point compilation (Tetko et al.; mined from patent text by program, amines drawn as free bases though some values may be those of a salt)
row,SMILES,melting point [°C]
1,CCOC(=O)c1cc(S)n2c(C)nnc2n1,206 to 208
2,CCOC(=O)COC(=O)Cc1ccc2cc(OC)ccc2c1,38 to 40
3,O=C(Nc1ccc(Oc2ccnc(N3CCCC3)n2)c2ccccc12)c1cc(F)cc(N2CCCCC2)c1,111 to 113
4,Cn1nc(N)c(C#N)c1N,194
5,Cc1nc(-n2ccc3cc(O)ccc3c2=O)sc1C(=O)NCc1ccccc1,225 to 228
6,COC(=O)NC(=O)c1c(Br)ccc2c(C(F)(F)F)c(OC)ccc12,180 to 182
7,O=C1C=CC(O)(c2cccc3ccccc23)C=C1,117 to 118
8,Cc1cc(NS(=O)(=O)c2ccccc2)cc(C)c1SC[N+](=O)[O-],146 to 148
9,Cc1cc2c(c(C)c1[N+](=O)[O-])OCO2,75 to 76
10,COc1ccc2c(c1)C1=C(SCC3(CCNCC3)O1)C(=O)C2=O,224 to 226
11,CC(=O)OCCN1C(=O)N2CCOC2(c2ccccc2)c2cc(Cl)ccc21 (stereo unspecified),121 to 123
12,O=c1c2c(Cl)cccc2nc(CSc2ncnc3[nH]cnc23)n1-c1ccccc1F,244
13,O=C(Cc1cccnn1)c1ccc(F)cc1F,116 to 118
14,CN(C)c1nc2cc(NC(=O)c3c(C(=O)O)cnn3C)ccn2n1,> 250
15,O=C(Nc1ccc(Oc2ccc(C(F)(F)F)cc2)cc1)Nc1nonc1-c1ccc(Cl)cc1,208
16,CNC(=S)NCc1ccc(Br)nc1,117 to 118
17,COc1ccccc1-n1nnc2cc(F)c(NC(C)=O)cc21,174 to 175
18,O=CNCC(O)(Cn1cncn1)c1ccc(Cl)cc1Cl (stereo unspecified),157
19,CCNCC1CCN(c2c(F)cc3c(=O)c(C(=O)O)cn(C4CCCCC4)c3c2F)C1 (stereo unspecified),194 to 196
20,Cc1c(C(=O)C2C(=O)CCCC2=O)ccc(S(C)(=O)=O)c1S(C)(=O)=O,301 to 302
21,NC(=S)C(c1ccccc1)c1cccnn1 (stereo unspecified),161 to 163

row,SMILES,melting point [°C]
1,O=C1NC(=O)c2ccccc2/C1=C/Nc1ccc(N2CCOCC2)cc1,257 to 258
2,CN(C)c1cc2ccccn2n1,51 to 52
3,Clc1ccc(Cl)c(Oc2cccc(Cl)n2)c1,82 to 84
4,CCCCCCCCCN(CCC)CCC(O)(P(=O)(O)O)P(=O)(O)O,45 to 47
5,O=C(O)[C@H]1CCn2c(cc3ccccc32)C1,244 to 246
6,CC(=O)c1c(Cl)n(C)c2ccccc12,180
7,O=C(O)c1cn(-c2ccnc3ccccc23)c2ccc(F)cc12,148
8,CCOC(=O)Cc1nccc(NC=O)n1,80 to 93
9,CC(C)(C)OC(=O)N1CCC(Oc2ccc(-c3ccc(=O)[nH]n3)c(F)c2)CC1,117 to 119
10,N#Cc1c(N2CCCCC2)cc(-c2ccccc2)c2c1-c1ccccc1C2=O,166 to 168
11,COc1c(OC)c(OC)c2c(=O)cc(-c3ccc(O)cc3)oc2c1OC,187 to 188
12,CCOc1cc2c(cc1OC)OC(C)(C)CC2=O,86 to 87
13,CCn1cc(C(=O)NC2CC2c2ccccc2)c(=O)c2cnc(N3CCCC3)nc21 (stereo unspecified),199 to 201
14,CC(CC#N)Nc1cc(Oc2ccc(S(=O)(=O)C(C)C)cc2Cl)ccc1[N+](=O)[O-] (stereo unspecified),132
15,CCOC(=O)c1cc(Cl)n2c(C)nnc2n1,108 to 110
16,CCCCCCCOc1ccc(C(=O)CCC(=O)OCC)cc1,39.7 to 40.1
17,CC(=O)C(C)C(=O)N(c1ccc(Cl)cc1)C(C)C (stereo unspecified),77 to 79
18,O=C(c1ccccc1F)c1cc(Cl)ccc1C=CCN1C(=O)c2ccccc2C1=O,117
19,NC(=O)C(Cc1ccccc1)NC(=O)Nc1n[nH]c(=S)s1 (stereo unspecified),175 to 177
20,CC(C)(C)OC(=O)CCC(CCC(=O)OC(C)(C)C)(CCC(=O)OC(C)(C)C)NC(=O)C=C=C[N+](=O)[O-],140 to 141
21,CCCCCCCCCCc1ccc2cc(SC)c(O)cc2c1,64.4 to 65.4

row,SMILES,melting point [°C]
1,CON1C(C)(C)CC(=O)CC1(C)C,35 to 38
2,COc1cc(Nc2ncc3c(n2)C(C)(c2ccccc2)CCC3)ccc1-n1cnc(C)c1 (stereo unspecified),207 to 209
3,CCCOC(=O)C1=C(N)NC(C)=C(C(=O)OCC)C1c1cccc([N+](=O)[O-])c1 (stereo unspecified),168
4,COc1cccc(CNS(=O)(=O)Cc2ccc3[nH]cc(CC#N)c3c2)c1,125 to 126
5,CCCNC(=O)CCCc1ccc2c(c1)c(Cc1ccc(C(=O)NS(=O)(=O)c3ccccc3C)cc1OC)cn2CCC,94 to 95
6,CCCOC(=O)c1cn(C(C)(C)C)c2ncc([N+](=O)[O-])cc12,116 to 120
7,Cc1ccc(-c2c(C(=O)O)oc(=O)c3cnccc23)cc1,254 to 256
8,C[Si](C)(C)OC1(C#N)CCOc2c(Cl)cc(Cl)cc21 (stereo unspecified),77 to 79
9,CCN(CC)c1ccc(C=O)c(OCc2ccccn2)c1,78 to 81
10,Cc1cc(C)c(C(=O)P(=O)(C(=O)c2c(C)cc(C)cc2C)c2ccccc2)c(C)c1,130 to 131
11,O=C(O)COc1ccc2cc(CNC(=O)c3cc(-c4ccc(Cl)cc4)oc3C(F)(F)F)ccc2c1,194 to 196
12,CC(C)(C)OCCOCCn1cc(C(=O)NCc2ccc(Cl)cc2)c(=O)c2cc(CN3CCOCC3)ccc21,130 to 132
13,Cc1noc2cc3c(cc12)C1(CO3)C(=O)N(Cc2cnccn2)c2ccccc21 (stereo unspecified),170 to 173
14,CCN1C[C@@H](C(=O)OC(C)(C)C)N(C(=O)[C@H](C)CSC(=O)c2ccccc2)C1=O,92 to 93
15,COC(=O)[C@@H]1C[C@H](C(=O)OC(C)(C)C)N(C(=O)CNC(=O)OC(C)(C)C)[C@@H]1c1ccccc1F (racemic),142
16,O=C(CCC(=O)N[C@@H]1CCc2ccccc21)N[C@@H]1CCc2ccccc21,266 to 269
17,N#CCCn1nc(-c2ccc(OCc3ccccc3)cc2)oc1=O,136
18,NC(=O)C(F)(F)C(O)(Cn1cncn1)c1ccccc1 (stereo unspecified),160 to 161
19,C=C(c1ccc(C(=O)O)cc1)C(O)(Cn1cncn1)c1ccc(F)cc1F (stereo unspecified),189 to 190
20,CC(Oc1cc2sc(NC(=O)NCCN3CCOCC3)nc2cc1Cl)c1c(Cl)ccc(F)c1Cl (stereo unspecified),196 to 198
21,O=C(Nc1cccnc1)c1nnc2ccccc2c1O,326 to 328

# Now from value to compound:
row,melting point [°C],SMILES
1,127 to 128,NC(=O)c1cccc(Oc2ccccc2)c1
2,125 to 126,CCOC(=O)c1c(-c2ccccc2Cl)c2cc(CC)ccc2n(C)c1=O
3,212 to 215,Cc1c(-c2ccncc2)[nH]c(-c2ccncc2)c1C(N)=O
4,110 to 112,c1cncc(CN2CCN(CCCCc3c[nH]c4ccc(-n5cnnc5)cc34)CC2)c1
5,197 to 199,N#Cc1c(N2CCCC2)cc(-c2ccc(Cl)cc2)c2c1Cc1ccccc1-2
6,125,COc1cc(Nc2nccc(-c3ccc(NCC(C)(C)CN(C)C)nc3)n2)cc(OC)c1OC
7,135 to 137,COC(=O)c1cc(NS(C)(=O)=O)ccc1F
8,115 to 116,Cc1cc(C)c(Nc2nc(C)ccc2S(=O)(=O)c2ccc(OCCCCC#N)cc2)c(C)c1
9,190,CC(=Cc1ccccc1)n1c(=O)[nH]c2ccc(F)cc21
10,55 to 56,CCOC(=O)NC(C)COc1ccc(Oc2ccc(F)cc2)cc1 (stereo unspecified)
11,226 to 229,O=c1oc2c(c(O)c1Br)c(=O)n(Cc1ccccc1)c1ccccc21
12,122 to 125,CCOC(=O)Cc1c(C)n(Cc2ccccc2)c2ccc(O)cc12
13,227 to 228,CC(=O)Nc1c(C(=O)c2ccco2)[nH]c2cc(Cl)ccc12
14,131 to 137,CCn1c2ccccc2c2cc(Nc3nccc(-c4ccc(N5CCNCC5)nc4)n3)ccc21
15,117,NCC(O)C1=CC2(CCCCC2)c2ccccc21 (stereo unspecified)
16,242 to 244,COc1cc(-c2cnc3[nH]cc(C(=O)C4(C)CCC(O)CC4)c3n2)cc(OC)c1OC (stereo unspecified)
17,182 to 183,CN(C)CC1CN(c2c(F)cc3c(=O)c(C(=O)O)cn(C4CC4)c3c2F)CCO1 (stereo unspecified)
18,135 to 140,CC(=O)SCCc1ncn(C(c2ccccc2)(c2ccccc2)c2ccccc2)n1
19,133 to 140,N#Cc1ccccc1-c1ccc2[nH]c(Cc3ccccc3)nc2c1

row,melting point [°C],SMILES
1,219 to 221,Cc1nc2ccccc2n1-c1ccc(C(=O)N(C)C2CCNCC2)cc1
2,62 to 65,COc1ccc(Cl)c(CC#N)c1
3,93 to 94,COC(=O)C1CCC2C3CCC4CC(=O)CCC4(C)C3C(NC3CCCCC3)CC12C (stereo unspecified)
4,106 to 107,CSc1nc2c(OCc3ccccc3)cccc2n1CCCO
5,148 to 149,CSc1[nH]c(-c2ccccc2C)cc1C#N
6,115 to 120,O=S(=O)(CCNc1ccc(Cl)c(C(F)(F)F)c1)NCCCOc1cccc(CN2CCCCC2)c1
7,101 to 103,N#CCCSC1C2=C(CCCC2)C(=O)N1c1ccc(Cl)cc1F (stereo unspecified)
8,128 to 130,O=C(O)CCCCCCCCCCC(=O)Nc1ccccc1OCCCC(=O)O
9,152 to 153,O=C(Cc1cc(F)ccc1F)N1CCNc2ncc(I)cc21
10,164 to 167,COc1ccc(S(=O)(=O)N(CCCO)c2ccccc2/C=C/c2ccncc2)cc1
11,153 to 158,COc1cccc(CC(CS)C(=O)Nc2c[nH]c(C(=O)O)c2)c1 (stereo unspecified)
12,118,Brc1ccc(-n2ccc3cc(OCc4ccccc4)ccc32)cc1
13,163 to 165,COC(=O)c1ccc(Cn2c(=O)c(C)c3sc(C(=O)NCc4ccc(OC)cc4)cn3c2=O)cc1
14,57,CC(=O)c1ccc(Cl)c(C)c1F
15,190 to 192,CCC(Nc1ccncc1)c1ccccc1 (stereo unspecified)
16,135 to 136,Cn1c(C(F)(F)F)cc(=O)n(-c2ccc([N+](=O)[O-])cc2F)c1=O
17,> 250,CCOC(=O)c1cn2c3c(c(-c4ccc(S(N)(=O)=O)cc4)c(F)cc3c1=O)OCC2C (stereo unspecified)
18,172 to 175,Cc1ccc(Cn2ncc(-c3ccc(S(C)(=O)=O)cc3)c(-c3ccc(F)cc3)c2=O)s1
19,91 to 93,O=C(N=C1CCCN1Cc1ccccc1)Nc1cccc(Cl)c1
